This is an account of results in patent US9067922B2, “Chemical compounds” (Pfizer Limited, priority 2013, dated 2015).

Some results are limits rather than exact numbers.

As a reminder, the IC50 is the concentration that gives 50% inhibition.

For the assay, the target named is URAT-1 transporter (Homo sapiens (Human), UniProt Q96S37). As to the kind of experiment: URAT-1 inhibitor activity: [14C]-uric acid uptake in CHO-URAT1(L)GFP#8 (CHO#8) cells, scintillation proximity. It counts as cell-based. The conditions noted are these: inhibition of [14C]-uric acid (30 nM) uptake into CHO#8 cells; compound 0 to 10 μM; 4 parameter logistic fit. In outline: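 CHO cells stably expressing human URAT1 long isoform–eGFP fusion, pre-incubated 1 h in chloride-containing buffer pH 7.4, then given 30 nM [14C]-uric acid with compound (0–10 μM, 0.25% DMSO) in chloride-free gluconate buffer pH 7.4. Uptake measured by scintillation proximity on Cytostar plates.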
Sequence of URAT-1 transporter (Q96S37 other isoform, or with tags, fused parts or gaps): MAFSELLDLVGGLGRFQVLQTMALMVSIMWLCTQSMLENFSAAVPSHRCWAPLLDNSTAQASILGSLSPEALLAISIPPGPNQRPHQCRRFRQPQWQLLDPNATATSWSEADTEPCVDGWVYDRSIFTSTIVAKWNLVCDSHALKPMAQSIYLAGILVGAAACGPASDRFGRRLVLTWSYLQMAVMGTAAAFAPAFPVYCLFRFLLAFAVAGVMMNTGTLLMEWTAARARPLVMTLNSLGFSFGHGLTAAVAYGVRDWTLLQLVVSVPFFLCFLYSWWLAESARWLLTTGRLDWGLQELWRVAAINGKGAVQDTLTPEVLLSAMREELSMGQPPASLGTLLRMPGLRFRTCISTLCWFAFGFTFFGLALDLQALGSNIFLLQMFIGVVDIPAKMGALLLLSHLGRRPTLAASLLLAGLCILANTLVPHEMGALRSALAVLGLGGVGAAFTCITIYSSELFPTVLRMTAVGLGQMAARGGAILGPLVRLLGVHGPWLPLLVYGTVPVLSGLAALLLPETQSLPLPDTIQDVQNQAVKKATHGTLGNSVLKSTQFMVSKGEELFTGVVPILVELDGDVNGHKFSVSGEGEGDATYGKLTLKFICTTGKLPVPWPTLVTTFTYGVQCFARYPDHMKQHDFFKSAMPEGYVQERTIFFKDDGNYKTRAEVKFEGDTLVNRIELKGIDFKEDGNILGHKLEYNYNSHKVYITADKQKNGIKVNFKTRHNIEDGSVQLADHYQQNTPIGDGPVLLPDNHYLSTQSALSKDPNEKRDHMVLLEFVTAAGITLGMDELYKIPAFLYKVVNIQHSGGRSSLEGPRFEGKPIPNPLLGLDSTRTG

`N#Cc1cc(F)ccc1Oc1ccc(S(=O)(=O)Nc2ccc(F)cn2)cc1C#N` [Example 36, 3-cyano-4-(2-cyano-4-fluorophenoxy)-N-(5-fluoropyridin-2-yl)benzenesulfonamide] came in with a half-inhibitory concentration (IC50) of 241 nM.
The figure for `CN(C)c1cccc(Oc2ccc(S(=O)(=O)Nc3ccc(F)cn3)cc2C#N)c1` [Example 131, 3-cyano-4-[3-(dimethylamino)phenoxy]-N-(5-fluoropyridin-2-yl)benzenesulfonamide] is above 10000 nM.
The same measure for `N#Cc1cc(Cl)ccc1Oc1ccc(S(=O)(=O)Nc2ccc(F)cn2)cc1C#N` [Example 45, 4-(4-chloro-2-cyanophenoxy)-3-cyano-N-(5-fluoropyridin-2-yl)benzenesulfonamide]: 174 nM.
The figure for `N#Cc1cc(S(=O)(=O)Nc2ccc(F)cn2)ccc1Oc1cc(F)c(C#N)c(Cl)c1` [compound 237, 4-(3-chloro-4-cyano-5-fluorophenoxy)-3-cyano-N-(5-fluoropyridin-2-yl)benzenesulfonamide] is 8 nM.
As for `N#Cc1cc(S(=O)(=O)Nc2ccc(F)cn2)ccc1Oc1ccc(F)c(F)c1` [Example 77, 3-cyano-4-(3,4-difluorophenoxy)-N-(5-fluoropyridin-2-yl)benzenesulfonamide], 43 nM corresponded to half-maximal inhibition (IC50).
The same measure for `N#Cc1cc(S(=O)(=O)Nc2ccc(F)cn2)ccc1Oc1cccc(Cl)c1F` [Example 24, 4-(3-chloro-2-fluorophenoxy)-3-cyano-N-(5-fluoropyridin-2-yl)benzenesulfonamide]: 135 nM; for `N#Cc1cc(S(=O)(=O)Nc2ccc(F)cn2)ccc1Oc1cccc(C#N)c1F` [Example 75, 3-cyano-4-(3-cyano-2-fluorophenoxy)-N-(5-fluoropyridin-2-yl)benzenesulfonamide]: 2210 nM.
On to `N#Cc1cc(Oc2ccc(S(=O)(=O)Nc3ccc(F)cn3)cc2C#N)ccc1Cl` [Example 60, 4-(4-chloro-3-cyanophenoxy)-3-cyano-N-(5-fluoropyridin-2-yl)benzenesulfonamide], for which the IC50 amounted to 92 nM.
The same measure for `CC(C)c1cc(Oc2ccc(S(=O)(=O)Nc3ccc(F)cn3)cc2C#N)ccc1Cl` [Example 164, 4-[4-chloro-3-(propan-2-yl)phenoxy]-3-cyano-N-(5-fluoropyridin-2-yl)benzenesulfonamide]: 6160 nM; for `N#Cc1cc(S(=O)(=O)Nc2ccc(F)cn2)ccc1Oc1ccccc1F` [Example 41, 3-cyano-4-(2-fluorophenoxy)-N-(5-fluoropyridin-2-yl)benzenesulfonamide]: 162 nM; for `N#Cc1cc(S(=O)(=O)Nc2ccc(F)cn2)ccc1Oc1ccc(F)c(C(F)(F)F)c1` [Example 48, 3-cyano-N-(5-fluoropyridin-2-yl)-4-[4-fluoro-3-(trifluoromethyl)phenoxy]benzenesulfonamide]: 683 nM.
The same measure for `N#Cc1ccc(Oc2ccc(S(=O)(=O)Nc3ccc(F)cn3)cc2C#N)c(OC(F)F)c1` [Example 67, 3-cyano-4-[4-cyano-2-(difluoromethoxy)phenoxy]-N-(5-fluoropyridin-2-yl)benzenesulfonamide]: 3520 nM; for `COc1ccc(Oc2ccc(S(=O)(=O)Nc3ccc(F)cn3)cc2C#N)cc1C#N` [Example 66, 3-cyano-4-(3-cyano-4-methoxyphenoxy)-N-(5-fluoropyridin-2-yl)benzenesulfonamide]: 135 nM.
The same measure for `COc1ccc(C)c(Oc2ccc(S(=O)(=O)Nc3ccc(F)cn3)cc2C#N)c1` [Example 200, 3-cyano-N-(5-fluoropyridin-2-yl)-4-(5-methoxy-2-methylphenoxy)benzenesulfonamide]: 53 nM; for `N#Cc1ccc(Oc2cc(F)c(S(=O)(=O)Nc3ccc(F)cn3)cc2Cl)cc1F` [compound 215]: above 10000 nM.
Take `Cc1cc(Cl)cc(Oc2ccc(S(=O)(=O)Nc3ccc(F)cn3)cc2C#N)c1` [Example 15, 4-(3-chloro-5-methylphenoxy)-3-cyano-N-(5-fluoropyridin-2-yl)benzenesulfonamide]: the IC50 turned out to be 135 nM.
